Converted amounts (≈) assume the structure as drawn. Like-named read-outs stand apart in the source and are kept apart here.
What was measured:
[1] = Cytotoxicity in HBV persistently infected human HEP G2 cells, neutral red dye uptake (Table 5); type: cell-based; details: human, hep-g2 cells
Procedure, shortened: (§1)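 HBV-transfected HEP-G2 monolayers in RPMI-1640 were given compound at four serial concentrations in triplicate for nine days at 37 °C, with periodic medium replacement. Toxicity from 0.01% neutral red uptake (A510), as percent of nine untreated control wells on the same plate.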

[2] = test system: HEP G2 cells persistently infected with HBV; test: as above; type: cell-based
Procedure, shortened: as §1

[3] = test system: HIV-1; type: in vivo; details: rat, single oral dose of 15 mg/kg by gavage
Procedure: The biologic activity of alkyl lipid CP-51 was evaluated in vivo. Sprague Dawley rats were fasted for 18 hours and received a single oral dose of 15 mg/kg of the alkyl lipid CP-51 by gavage. An in-dwelling carotid catheter was used to harvest whole blood at various times post-dose. The plasma containing the alkyl lipid was diluted 1:2 to 1:128 in phosphate buffered saline and assayed for biologic activity using the HIV-1 syncytial plaque test. CEM-SS cell monolayers were infected with HIV-1 and overlaid with RPMI-1640 medium containing serial dilutions of plasma. After incubation for five days at 37° C., the number of HIV-1 syncytial plaques was counted as previously described (Kucera et al., AIDS Res. Human Retroviruses, 6: 491-501, (1990)).

[4] = test system: mouse precursor erythrocyte (CFU-E); test: Cytotoxicity: inhibition of mouse precursor erythrocyte (CFU-E) colony formation; type: cell-based
Procedure: CP-51 and AZT were assayed for cytotoxicity by inhibition of mouse precursor erythrocyte (CFU-E) and granulocyte/macrophage (CFU-GM) cell colony formation.

[5] = test system: granulocyte/macrophage (CFU-GM); test: Cytotoxicity: inhibition of mouse granulocyte/macrophage (CFU-GM) colony formation; type: cell-based; details: read-out: inhibitory concentration 50% for colony formation (IC50)
Procedure: CP-51 and AZT were assayed for cytotoxicity by inhibition of mouse precursor erythrocyte (CFU-E) and granulocyte/macrophage (CFU-GM) cell colony formation. Mouse bone marrow precursor cells were suspended in soft-agar-RPMI-1640 medium supplmented with cell growth factors and serial concentrations of alkyl lipid.

[6] = test system: Friend-Leukemia virus; test: Inhibition of retrovirus-induced splenomegaly in Friend-Leukemia virus infected mice (Table 9); type: in vivo
Procedure: Mice were infected I.P. with Friend-Leukemia virus and not treated or treated I.P. with daily doses of phospholipid. After 14 days infection and treatment, the mice were sacrificed, the spleens were removed and weighed to determine the percentage, of control splenomegaly. […] Even a single dose of 25 mg/kg CP-51 inhibited splenomegaly by 36%.

[7] = Trial 1, read-out: % of Control Neutral Red Dye Uptake
[8] = Trial 3, read-out: % of Control Neutral Red Dye Uptake
[9] = % of Control Neutral Red Dye Uptake

Compound `Nc1ccn([C@H]2CC[C@@H](CO)O2)c(=O)n1` [2',3'-dideoxycytidine, 2', 3'-dideoxycytidine, reference compound] has a viability at 216 h, 10 µM ([1]; Trial 1, 10 μM, read-out: % of Control Neutral Red Dye Uptake) of 101 ± 2%, a viability at 216 h, 30 µM ([1]; Trial 1, 30 μM, read-out: % of Control Neutral Red Dye Uptake) of 100 ± 1% and a viability at 216 h, 100 µM [1, 7] of 97 ± 2%. It also gave a viability at 216 h, 300 µM [1, 7] of 34 ± 4%, a viability at 216 h, 10 µM ([1]; Trial 2, 10 μM, read-out: % of Control Neutral Red Dye Uptake) of 101 ± 3% and a viability at 216 h, 30 µM ([1]; Trial 2, 30 μM, read-out: % of Control Neutral Red Dye Uptake) of 102 ± 2%. It also gave a viability at 216 h, 300 µM ([1]; Trial 2, read-out: % of Control Neutral Red Dye Uptake) of 40 ± 4%, a viability at 216 h, 1000 µM ([1]; Trial 2, 1000 μM, read-out: % of Control Neutral Red Dye Uptake) of 12 ± 5% and a viability at 216 h, 10 µM ([1]; Trial 3, 10 μM, read-out: % of Control Neutral Red Dye Uptake) of 100 ± 1%. The viability at 216 h, 30 µM ([1]; Trial 3, 30 μM, read-out: % of Control Neutral Red Dye Uptake) was 102 ± 1%, the viability at 216 h, 100 µM [1, 8] was 99 ± 2% and the viability at 216 h, 300 µM [1, 8] was 35 ± 2%.
`CCCCCCCCCCCCCCCCCC(=O)NCC(COP(=O)([O-])OCC[N+](C)(C)C)OCC` (racemic) [CP-51, rac-3-octadecanamido-2-ethyoxy-1-propylphosphocholine] gave a viability at 216 h, 3 µM [1, 9] of 98 ± 3%, a viability at 216 h, 10 µM [1, 9] of 102 ± 1% and a viability at 216 h, 30 µM [1, 9] of 100 ± 3%. For the same compound, the “Cell toxicity (greater than 50% depression of dye uptake)” value [2] was “did not occur”, the “% of Control Neutral Red Dye Uptake” value ([2]; human, hep-g2 cells, 216 h, 3 µM) was 101 ± 1 % of Control and the “absorption into the blood” value [3] was “rapidly absorbed into the blood of rats”. For the same compound, the “biologically active concentrations in the blood (plasma)” value ([3]; HIV-1 syncytial plaque test) was “biologically active concentrations of the compound CP-51 were obtained in the blood (plasma)”, the “cytotoxicity relative to AZT” value ([4]; CFU-E and CFU-GM, in words) was “significantly less cytotoxic than AZT” and the IC50 ([4]; Mus musculus, Erythrocyte, read-out: inhibitory concentration 50% for colony formation (IC50)) was 41 µg/mL (≈ 74.4 µM). For the same compound, the IC50 [5] was 11 µg/mL (≈ 20 µM), the “inhibition of retrovirus-induced splenomegaly” value ([6]; 12.5 mg/kg/day intraperitoneally) was 43% and the “% of Control Splenomegaly” value ([6]; 12.5 mg/kg/day, daily treatment) was 43 % of Control. For the same compound, the “% of Control Splenomegaly” value ([6]; 25 mg/kg, one treatment) was 36 % of Control, the “anti-retrovirus activity in infected animals” value ([6]; in words) was “has anti-retrovirus activity in infected animals” and the “inhibition of retrovirus-induced splenomegaly” value ([6]; single dose of 25 mg/kg) was 36%.
